Data set [1] can be described thus: Permeability on the Caco2 cellular line. The format is in vitro ADME. The note with it: human, Caco-2; Apical (pH 6.5) → Basolateral (pH 7.4), Caco2; read-out: Papp A→B (nm/sec) Mean ± SD. The method, then: (§1) Such study is conducted with the aim of evaluating the capacity of the molecule to permeate the intestinal epithelium and be absorbed thereby evaluating the Papp (apparent permeability coefficient). The Papp of the compound (IV) is compared to that of the known reference standards.
For orientation: Caco-2 cells form a polarised layer with tight junctions and transporters.

Data set [2] relates to Caco2 cellular line. Description: Permeability on the Caco2 cellular line. The class given is in vitro ADME. To be noted: A→B, Caco2. The method, then:
as §1

Data set [3] can be described thus: Stability in murine intestinal homogenate. The format is in vitro ADME, rat. The note with it: rat intestinal homogenate, reference standard (concentration not given). The method, then:
Such study is conducted with the aim of evaluating the stability of the compound (IV) in intestinal homogenate.
(§2) The stability of the compound (IV) is compared to that of known reference standards.

The nature of data set [4]: Stability in simulated gastric and simulated intestinal fluids. The class given is physicochemical. The method, then: Such study is conducted with the aim of evaluating the stability of the compound (IV) at […] in absence of enzymes of the intestinal bacterial flora.
as §2

Data set [5] is described as follows: Hydrolysis in rat intestine preserved in different conditions. The class given is in vitro ADME. How it is done:
Such study is conducted with the aim of surveying the stability of the compound (IV) in rat intestine homogenate preserved in different conditions: frozen at […] and at −80° C.
as §2

These results are taken from US9193673B2, “Derivatives of mesalazine, process of their preparation and their use in the treatment of intestinal inflammatory diseases” (SOFAR SPA, priority 2010, dated 2015).

As to `CC[C@]1(O)C[C@@H]2CN(CCc3c([nH]c4ccccc34)[C@@](C(=O)OC)(c3cc4c(cc3OC)N(C)[C@H]3[C@@](O)(C(=O)OC)[C@H](OC(C)=O)[C@]5(CC)C=CCN6CC[C@]43[C@@H]65)C2)C1` [Vinblastine, reference compound], the Papp A→B in data set [1] is 0.41 ± 0.21 ×10⁻⁶ cm/s. For the same molecule, the “A→B Mean mass balance %” value in data set [2] amounted to 89%.

`CC[C@H]1OC(=O)[C@H](C)[C@@H](O[C@H]2C[C@@](C)(OC)[C@@H](O)[C@H](C)O2)[C@H](C)[C@@H](O[C@@H]2O[C@H](C)C[C@H](N(C)C)[C@H]2O)[C@](C)(O)C[C@@H](C)C(=O)[C@H](C)[C@@H](O)[C@]1(C)O` [Erythromycin, reference compound]: the Residue percentage in data set [3] (30 min) is listed as 83.5 ± 3.6%; in data set [3] (1 hr) it was 84.7 ± 3.6%; in data set [3] (2 hrs), 95.0 ± 11.0%; in data set [3] (4 hrs), 97.5 ± 2.8%. Moreover, the “% Residue” value in data set [4] (SGF, 30 min incubation) was 0.2 ± 0.1%; in data set [4] (SGF, 60 min incubation), 0.1 ± 0.1%; in data set [4] (SIF, 30 min incubation) it was 98.1 ± 1.4%; in data set [4] (SIF, 60 min incubation), 100.9 ± 0.4%.

Regarding `O=C(O)CCCc1ccc(N(CCCl)CCCl)cc1` [Chlorambucil, reference compound], the Residue percentage in data set [3] (30 min) was 49.5 ± 7.8%; in data set [3] (1 hr), 16.9 ± 2.2%; in data set [3] (2 hrs), 1.5 ± 0.1%; in data set [3] (4 hrs), 0.20 ± 0.08%. The “% Residue” value in data set [4] (SGF, 30 min incubation) is listed as 92.8 ± 2.1%; in data set [4] (SGF, 60 min incubation), 89.8 ± 1.5%; in data set [4] (SIF, 30 min incubation), 42.1 ± 0.5%; in data set [4] (SIF, 60 min incubation), 13.9 ± 0.3%. Also, the “Stability in rat intestine (residue %)” value is 75.2 ± 3.8% in data set [5] (fresh homogenate, 15 min); 58.7 ± 2.3% in data set [5] (fresh homogenate, 30 min); 28.0 ± 1.5% in data set [5] (fresh homogenate, 60 min); 76.5 ± 5.0% in data set [5] (homogenate 4° C., 15 min); 53.0 ± 13.9% in data set [5] (homogenate 4° C., 30 min); 25.9 ± 5.3% in data set [5] (homogenate 4° C., 60 min). For the same molecule, the “Stability in rat intestine (residue %)” value in data set [5] (intestine −80° C., 15 min) is 73.0 ± 1.2%; in data set [5] (intestine −80° C., 30 min), 25.0 ± 6.1%; in data set [5] (intestine −80° C., 60 min), 6.9 ± 1.4%.
